Converted amounts (≈) assume the structure as drawn. Like-named read-outs stand apart in the source and are kept apart here.
Assays:
physchem [1] = conditions: for Solubility in pH 7.4 PBS: three replicates ± SEM
Experimental: Enough PBS was added to make a 1 mg/mL solution. Compounds were then assessed by LC-MS and compared to a calibration curve to determine the solubility. […] Data shown is from three independent replicates±SEM. […] Between DMSO additions, the vial was vortexed and sonicated.
The compound was vortexed for ˜30 seconds before being placed into a bath sonicator (Cole Parmer, ultrasonic cleaner) for 1 h. […] The tubes were vortexed again for 30 s before being centrifuged at maximum speed (13,000×g) for 10 minutes. The supernatant was then filtered through a 0.22 μm syringe filter (Millipore Millex MP). […] Three independent replicates of each compound were performed. A calibration curve for each compound was generated from 1-400 μM by dissolving the compound in DMSO and making dilutions of the stock in DMSO. […] The concentration of the samples was calculated based on the calibration curves.

[2] = tested on: S. aureus 29213 (WT GyrA and WT ParC); assay: microbe, parasite or virus in culture; type: cell-based; conditions: Staphylococcus aureus; WT GyrA and WT ParC; read-out: MIC against S. aureus 29213
Experimental: (§1) Susceptibility testing was performed in triplicate using the microdilution broth method as outlined by the Clinical and Laboratory Standards Institute CLSI^52. MH broth was used.

physchem [3] = conditions: organic solvent or mixture, thermodynamic from solid
[4] = Pharmacokinetic assessment, serum by HPLC; type: in vivo, C57BL/6 mice; conditions: mouse serum
Experimental: FIG. 13. Pharmacokinetic analysis of DNM, DNM-2, and DNM-3. C57/BL6 mice were treated with 50 mg kg^−1 DNM, DNM-2, or DNM-3 via oral gavage. After the indicated time points (15, 30, 60, 120, 240, and 480 min), mice were sacrificed and the serum concentrations of DNM, DNM-2, and DNM-3 was determined by HPLC.
The animal studies (PK, in vivo toxicity and in vivo efficacy) were carried out in strict accordance with the recommendations in the Guide for the Care and Use of Laboratory Animals of the National Institutes of Health. […] In these studies, 10-12 week old female C57BL/6 mice purchased from Charles River were used. DNM, DNM-2, and DNM-3 were formulated as slurries at 8.3 mg mL^−1 in 25% Cremophor RH40/water (v/v). Before beginning the pharmacokinetic assessment, mice were first tested for their ability to tolerate the DNM, DNM-2, and DNM-3 at 50 mg kg^−1 (p.o.). […] At specified time points, mice were sacrificed and blood was collected, centrifuged, and the serum was frozen at −80° C. until analysis. The proteins in a 50 μL aliquot of serum were precipitated by the addition of 50 μL of acetonitrile and the sample was centrifuged to remove the proteins. Serum concentrations of DNM, DNM-2, and DNM-3 were determined by HPLC. PK parameters were determined using GraphPad Prism Version 5.00 for Windows.

[5] = tested on: MRSA clinical isolate SAU.494; assay: microbe, parasite or virus in culture; type: cell-based, S. aureus; conditions: Staphylococcus aureus, read-out: MIC
Experimental: as §1

[6] = tested on: MRSA clinical isolate SAU.419; assay: MIC, microdilution broth; type: cell-based, S. aureus; conditions: Staphylococcus aureus, MRSA, read-out: MIC
Experimental: as §1

[7] = tested on: MRSA clinical isolate SAU.446; assay: MIC, microdilution broth; type: cell-based, S. aureus; conditions: Staphylococcus aureus
Experimental: as §1

[8] = tested on: MRSA clinical isolate SAU.555; assay: MIC, microdilution broth; type: cell-based, S. aureus; conditions: Staphylococcus aureus
Experimental: as §1

[9] = tested on: MRSA clinical isolate SAU.3021; assay: MIC, microdilution broth; type: cell-based, S. aureus; conditions: Staphylococcus aureus, MRSA, read-out: MIC
Experimental: as §1

[10] = tested on: MRSA clinical isolate SAU.3025; assay: MIC, microdilution broth; type: cell-based, S. aureus; conditions: Staphylococcus aureus
Experimental: as §1

[11] = tested on: MRSA clinical isolate SAU.669; assay: MIC, microdilution broth; type: cell-based, S. aureus; conditions: Staphylococcus aureus
Experimental: as §1

[12] = tested on: MRSA clinical isolate SAU.2996; assay: MIC, microdilution broth; type: cell-based, S. aureus; conditions: Staphylococcus aureus, MRSA, read-out: MIC
Experimental: as §1

human topoisomerase II = target: T1, human topoisomerase II (Homo sapiens, UniProt P11388); assay: Human topoisomerase decatenation assay; type: biochemical; conditions: lowest inhibiting / highest without significant inhibition
T1 construct: purchased Inspiralis
T1 sequence (P11388 whole entry): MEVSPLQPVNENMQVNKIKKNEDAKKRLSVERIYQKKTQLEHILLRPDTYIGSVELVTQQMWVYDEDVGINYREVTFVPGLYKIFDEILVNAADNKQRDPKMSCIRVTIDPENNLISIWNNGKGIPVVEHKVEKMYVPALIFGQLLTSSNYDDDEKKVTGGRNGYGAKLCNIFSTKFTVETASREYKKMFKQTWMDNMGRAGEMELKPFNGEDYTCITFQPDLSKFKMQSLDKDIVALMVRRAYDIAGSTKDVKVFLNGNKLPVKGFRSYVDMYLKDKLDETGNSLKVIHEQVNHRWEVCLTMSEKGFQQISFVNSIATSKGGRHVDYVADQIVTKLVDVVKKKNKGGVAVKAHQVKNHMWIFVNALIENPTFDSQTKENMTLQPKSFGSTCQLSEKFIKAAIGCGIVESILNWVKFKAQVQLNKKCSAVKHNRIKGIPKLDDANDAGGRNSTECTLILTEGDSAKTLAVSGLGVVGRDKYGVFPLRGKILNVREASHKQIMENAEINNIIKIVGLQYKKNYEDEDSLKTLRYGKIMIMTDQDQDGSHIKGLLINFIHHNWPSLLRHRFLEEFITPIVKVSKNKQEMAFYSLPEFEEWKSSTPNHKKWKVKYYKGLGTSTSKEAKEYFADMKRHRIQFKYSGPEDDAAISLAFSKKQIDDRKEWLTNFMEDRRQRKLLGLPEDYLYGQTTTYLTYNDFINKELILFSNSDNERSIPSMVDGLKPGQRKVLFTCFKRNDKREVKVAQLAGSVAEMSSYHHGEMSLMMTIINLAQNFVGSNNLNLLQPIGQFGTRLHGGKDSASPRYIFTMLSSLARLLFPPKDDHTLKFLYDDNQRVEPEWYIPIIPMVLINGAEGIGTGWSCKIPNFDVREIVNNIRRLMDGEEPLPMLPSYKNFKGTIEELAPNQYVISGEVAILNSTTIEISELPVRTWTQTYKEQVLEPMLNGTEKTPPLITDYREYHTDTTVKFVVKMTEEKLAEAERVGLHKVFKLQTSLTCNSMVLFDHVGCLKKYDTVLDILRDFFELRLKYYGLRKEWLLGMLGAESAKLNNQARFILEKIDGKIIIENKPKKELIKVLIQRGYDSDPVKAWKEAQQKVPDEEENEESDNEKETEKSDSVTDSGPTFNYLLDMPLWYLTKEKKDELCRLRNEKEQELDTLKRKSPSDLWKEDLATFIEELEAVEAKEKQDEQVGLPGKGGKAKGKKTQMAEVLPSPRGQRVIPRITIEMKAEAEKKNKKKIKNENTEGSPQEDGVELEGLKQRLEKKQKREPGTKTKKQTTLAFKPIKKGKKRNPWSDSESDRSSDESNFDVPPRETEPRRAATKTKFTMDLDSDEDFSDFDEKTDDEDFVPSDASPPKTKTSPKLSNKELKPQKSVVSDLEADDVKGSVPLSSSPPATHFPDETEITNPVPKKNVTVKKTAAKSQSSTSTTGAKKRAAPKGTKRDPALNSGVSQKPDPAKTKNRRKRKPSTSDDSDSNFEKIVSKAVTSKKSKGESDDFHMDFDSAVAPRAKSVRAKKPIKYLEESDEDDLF
Experimental: The decatenation assay was performed with the Human Topo II Decatenation Assay Kit (Inspiralis) according to the manufacturer's instructions with minor modifications. First, a master mix was made containing 2 μL 10× assay buffer (500 mM Tris.HCl, pH 7.5, 1250 mM NaCl, 100 mM MgCl2, 50 mM DTT, 1000 μg/mL albumin), 0.67 μL 30 mM ATP, 1.34 μL 0.1 ng/μL kDNA, and 14.3 μL of nuclease free water per sample is made. DMSO or 30× compound is added to a 0.5 mL Eppendorf tube (0.67 μL per tube). The master mix is then added to each tube (18.3 μL per tube). Finally, 1 U of human topoisomerase (1 μL of 1 U/μL stock) is added to each tube for a final volume of 20 μL. The tubes are then incubated at 37° C. for 30 min. Reactions are stopped by the addition of 20 μL of 24:1 chloroform:isoamyl alcohol and 20 μL of stop dye (40% sucrose, 1 mM EDTA, 100 mM TrisHCl pH 7.5, 0.5 μg/mL bromophenol blue). Samples were run on 1% agarose gels containing 0.5 μg/mL ethidium bromide for 1 h at 110V or until the dye front was approximately halfway down the gel. Gels were imaged on a Molecular Imager Gel Doc XR+ (Biorad).

Structure (SMILES) | MIC [2] [µg/mL] | solubility (physchem [3]) [mM] | other results
CCc1cc(=O)n(C)c2c3c4c(cc12)c(C)cc(=O)n4CO3 [Compound 4] | 8 (≈ 27 µM) | 4.7 (≈ 1390 µg/mL) | Solubility in pH 7.4 PBS (physchem [1]): 53 μM
Cc1cc(=O)n(C)c2c3c4c(cc12)c(C)cc(=O)n4C(C)O3 (centres unmarked) [Compound 5] | 4 (≈ 13.5 µM) | 3.4 (≈ 1010 µg/mL) | –
CCCc1cc(=O)n2c3c(c4c(cc13)c(C)cc(=O)n4C)OC2 [Compound 6] | 16 (≈ 51.6 µM) | 6.4 (≈ 1990 µg/mL) | –
CCCc1cc(=O)n(C)c2c3c4c(cc12)c(C)cc(=O)n4CO3 [Compound 7] | 16 (≈ 51.6 µM) | 5.8 (≈ 1800 µg/mL) | –
CCCCCn1c(=O)cc(C)c2cc3c(C)cc(=O)n4c3c(c21)OC4 [Compound 9] | 32 (≈ 94.6 µM) | 26.9 (≈ 9100 µg/mL) | –
CCCCCCn1c(=O)cc(C)c2cc3c(C)cc(=O)n4c3c(c21)OC4 [Compound 10] | > 64 | 56.7 (≈ 20000 µg/mL) | –
Cc1cc(=O)n2c3c(c4c(cc13)c(C)cc(=O)n4CC(C)C)OC2 [Compound 11] | > 32 | 7.1 (≈ 2300 µg/mL) | –
Cc1cc(=O)n2c3c(c4c(cc13)c(C)cc(=O)n4CC(C)(C)C)OC2 [Compound 12] | 32 (≈ 94.6 µM) | 38.7 (≈ 13100 µg/mL) | –
CCc1cc(=O)n(C)c2c3c4c(cc12)c(CC)cc(=O)n4CO3 [Compound 13] | > 32 | 5.2 (≈ 1610 µg/mL) | Solubility in pH 7.4 PBS (physchem [1]): 48 μM
CCCc1cc(=O)n(C)c2c3c4c(cc12)c(CCC)cc(=O)n4CO3 [Compound 14] | > 32 | 18.3 (≈ 6190 µg/mL) | solubility at 1 h (physchem [1]; pH 7.4, aqueous buffer, thermodynamic from solid): < 0.001 mM
CCCCn1c(=O)cc(CCC)c2cc3c(CCC)cc(=O)n4c3c(c21)OC4 [Compound 15] | > 32 | 4.2 (≈ 1600 µg/mL) | –
CCc1cc(=O)n2c3c(c4c(cc13)c(C)cc(=O)n4C)OC2 [DNM-3] | 8 (≈ 27 µM) | 1.3 (≈ 385 µg/mL) | AUC ([4]; 50 mg kg^−1 oral dose): 4000 ng·h/mL; Cmax / peak serum concentration ([4]; 50 mg kg^−1 oral dose): 1260 ng/mL; Cmax ([4]; 50 mg kg^−1 oral dose, read-out: Cmax / peak serum concentration): 4.3 µM; AUC ([4]; 50 mg kg^−1 oral gavage): 4000 ng·h/mL; Cmax ([4]; 50 mg kg^−1 oral gavage): 1260 ng/mL; Tmax ([4]; 50 mg kg^−1 oral gavage): 1.1 h; t1/2 ([4]; 50 mg kg^−1 oral gavage): 1.2 h; Solubility in pH 7.4 PBS (physchem [1]): 27 μM
CO[C@@H]1[C@@H](OC(N)=O)[C@@H](O)[C@H](Oc2ccc3c(O)c(NC(=O)c4ccc(O)c(CC=C(C)C)c4)c(=O)oc3c2C)OC1(C)C [Novo, Novobiocin] | – | – | MIC [5]: 0.125 µg/mL (≈ 0.204 µM); MIC [6]: 0.25 µg/mL (≈ 0.408 µM); MIC [7]: 0.5 µg/mL (≈ 0.816 µM); MIC [8]: 0.25 µg/mL (≈ 0.408 µM); MIC [9]: 0.25 µg/mL (≈ 0.408 µM); MIC [10]: 0.25 µg/mL (≈ 0.408 µM); MIC [11]: 0.5 µg/mL (≈ 0.816 µM); MIC [12]: 0.5 µg/mL (≈ 0.816 µM)
COc1cccc2c1C(=O)c1c(O)c3c(c(O)c1C2=O)C[C@@](O)(C(=O)CO)C[C@@H]3O[C@H]1C[C@H](N)[C@H](O)[C@H](C)O1 [doxorubicin, reference compound] | – | – | concentration inhibiting human topoisomerase II (human topoisomerase II): 3 µM
